In patent publication US8449898B2 (priority 2007, dated 2013):
Like-named read-outs stand apart in the source and are kept apart here.

Tests used:
[1] = test system: Phytophthora infestans (the causal agent of tomato late blight); test: whole plant or invertebrate; type: in vivo; settings: for TLB Obsd: component (b) alone
[2] = test system: Pseudoperonospora cubensis (the causal agent of cucumber downy mildew); test: Test B: cucumber downy mildew, preventive spray on cucumber seedlings; type: in vivo; settings: for pest or weed control at 40 µg/mL: component (b) alone 40 ppm (Compound 1 0 ppm)
[3] = Pseudoperonospora cubensis, component (b) alone 0.4 ppm (Compound 1 0 ppm), read-out: CDM Obsd
[4] = Pseudoperonospora cubensis, component (b) alone 2 ppm (Compound 1 0 ppm), read-out: CDM Obsd
[5] = Pseudoperonospora cubensis, component (b) alone 10 ppm (Compound 1 0 ppm), read-out: CDM Obsd
[6] = Pseudoperonospora cubensis, read-out: CDM Obsd

## C[C@@]1(c2ccc(Oc3ccccc3)cc2)OC(=O)N(Nc2ccccc2)C1=O (racemic) [famoxadone]
[1]; Phytophthora infestans, read-out: TLB Obsd (disease control rating), Table C, component (b) alone 0.4 ppm
  pest or weed control at 0.4 ppm: 17%
[1]; Phytophthora infestans, read-out: TLB Obsd (disease control rating), Table C, component (b) alone 2 ppm
  pest or weed control at 2 ppm: 26%
[1]; Phytophthora infestans, read-out: TLB Obsd (disease control rating), Table C, component (b) alone 10 ppm
  pest or weed control at 10 ppm: 67%
[1]; Phytophthora infestans, read-out: TLB Obsd (disease control rating), Table C, component (b) alone 40 ppm
  pest or weed control at 40 ppm: 53%
[1]; Phytophthora infestans, read-out: TLB Obsd (disease control rating), Table C, component (b) alone 200 ppm
  pest or weed control at 200 ppm: 66%
[1]; Phytophthora infestans, read-out: TLB Obsd, component (b) alone, 0.04 ppm
  pest or weed control at 0.04 ppm: 100%
[1]; Phytophthora infestans, read-out: TLB Obsd, component (b) alone, 2 ppm
  pest or weed control at 2 ppm: 32%
[1]; Phytophthora infestans, read-out: TLB Obsd, component (b) alone, 10 ppm
  pest or weed control at 10 ppm: 93%
[1]; Phytophthora infestans, read-out: TLB Obsd, component (b) alone, 40 ppm
  pest or weed control at 40 ppm: 98%
[1]; Phytophthora infestans, read-out: TLB Obsd, component (b) alone, 200 ppm
  pest or weed control at 200 ppm: 100%
[2]; Pseudoperonospora cubensis, Table C, component (b) alone 0.4 ppm, read-out: CDM Obsd (disease control rating)
  pest or weed control at 0.4 ppm: 47%
[2]; Pseudoperonospora cubensis, Table C, component (b) alone 2 ppm, read-out: CDM Obsd (disease control rating)
  pest or weed control at 2 ppm: 63%
[2]; Pseudoperonospora cubensis, Table C, component (b) alone 10 ppm, read-out: CDM Obsd (disease control rating)
  pest or weed control at 10 ppm: 95%
[2]; Pseudoperonospora cubensis, Table C, component (b) alone 40 ppm, read-out: CDM Obsd (disease control rating)
  pest or weed control at 40 ppm: 100%
[2]; Pseudoperonospora cubensis, Table C, component (b) alone 200 ppm, read-out: CDM Obsd (disease control rating)
  pest or weed control at 200 ppm: 100%
[2]; [3]
  pest or weed control at 0.4 µg/mL: 47%
[2]; [4]
  pest or weed control at 2 µg/mL: 58%
[2]; [5]
  pest or weed control at 10 µg/mL: 87%
[2]; [6]
  pest or weed control at 40 µg/mL: 100%
[2]; Pseudoperonospora cubensis, component (b) alone 200 ppm (Compound 1 0 ppm), read-out: CDM Obsd
  pest or weed control at 200 µg/mL: 100%
[2]; Pseudoperonospora cubensis, component (b) alone, 0.04 ppm, read-out: CDM Obsd
  pest or weed control at 0.04 ppm: 100%
[2]; Pseudoperonospora cubensis, component (b) alone, 2 ppm, read-out: CDM Obsd
  pest or weed control at 2 ppm: 21%
[2]; Pseudoperonospora cubensis, component (b) alone, 10 ppm, read-out: CDM Obsd
  pest or weed control at 10 ppm: 72%
[2]; Pseudoperonospora cubensis, component (b) alone, 40 ppm, read-out: CDM Obsd
  pest or weed control at 40 ppm: 100%
[2]; Pseudoperonospora cubensis, component (b) alone, 200 ppm, read-out: CDM Obsd
  pest or weed control at 200 ppm: 100%

## COC(=O)CC(NC(=O)[C@@H](NC(=O)OC(C)C)C(C)C)c1ccc(Cl)cc1 (some centres unmarked) [valiphenal]
[1]; 0.016 ppm
  TLB Obsd: 8%
[1]; 0.08 ppm
  TLB Obsd: 8%
[1]; 0.4 ppm
  TLB Obsd: 8%
[1]; 2 ppm
  TLB Obsd: 32%
[1]; 10 ppm
  TLB Obsd: 99%
[2]; component (b) alone 0.016 ppm (Compound 1 0 ppm)
  CDM Obsd: 65%
[2]; component (b) alone 0.08 ppm (Compound 1 0 ppm)
  CDM Obsd: 47%
[2]; component (b) alone 0.4 ppm (Compound 1 0 ppm)
  CDM Obsd: 47%
[2]; component (b) alone 2 ppm (Compound 1 0 ppm)
  CDM Obsd: 47%
[2]; component (b) alone 10 ppm (Compound 1 0 ppm)
  CDM Obsd: 57%
[2]; component (b) alone, 0.016 ppm
  CDM Obsd: 31%
[2]; component (b) alone, 0.08 ppm
  CDM Obsd: 16%
[2]; component (b) alone, 0.4 ppm
  CDM Obsd: 16%
[2]; component (b) alone, 2 ppm
  CDM Obsd: 53%
[2]; component (b) alone, 10 ppm
  CDM Obsd: 100%

## COC(=O)N(OC)c1ccccc1COc1ccn(-c2ccc(Cl)cc2)n1 [pyraclostrobin]
[1]; Phytophthora infestans, read-out: TLB Obsd (observed effect, tomato late blight), component (b) alone, 0.08 ppm
  pest or weed control at 0.08 ppm: 15%
[1]; Phytophthora infestans, read-out: TLB Obsd (observed effect, tomato late blight), component (b) alone, 0.4 ppm
  pest or weed control at 0.4 ppm: 35%
[1]; Phytophthora infestans, read-out: TLB Obsd (observed effect, tomato late blight), component (b) alone, 2 ppm
  pest or weed control at 2 ppm: 63%
[1]; Phytophthora infestans, read-out: TLB Obsd (observed effect, tomato late blight), component (b) alone, 10 ppm
  pest or weed control at 10 ppm: 90%
[1]; Phytophthora infestans, read-out: TLB Obsd (observed effect, tomato late blight), component (b) alone, 40 ppm
  pest or weed control at 40 ppm: 94%
[1]; Phytophthora infestans, read-out: TLB Obsd, Table D, component (b) alone at 0.08 ppm
  pest or weed control at 0.08 ppm: 26%
[1]; Phytophthora infestans, read-out: TLB Obsd, Table D, component (b) alone at 0.4 ppm
  pest or weed control at 0.4 ppm: 40%
[1]; Phytophthora infestans, read-out: TLB Obsd, Table D, component (b) alone at 2 ppm
  pest or weed control at 2 ppm: 78%
[1]; Phytophthora infestans, read-out: TLB Obsd, Table D, component (b) alone at 10 ppm
  pest or weed control at 10 ppm: 85%
[1]; Phytophthora infestans, read-out: TLB Obsd, Table D, component (b) alone at 40 ppm
  pest or weed control at 40 ppm: 95%
[2]; Pseudoperonospora cubensis, Table D, component (b) alone at 0.08 ppm, read-out: CDM Obsd
  pest or weed control at 0.08 ppm: 47%
[2]; Pseudoperonospora cubensis, Table D, component (b) alone at 0.4 ppm, read-out: CDM Obsd
  pest or weed control at 0.4 ppm: 47%
[2]; Pseudoperonospora cubensis, Table D, component (b) alone at 2 ppm, read-out: CDM Obsd
  pest or weed control at 2 ppm: 98%
[2]; Pseudoperonospora cubensis, Table D, component (b) alone at 10 ppm, read-out: CDM Obsd
  pest or weed control at 10 ppm: 100%
[2]; Pseudoperonospora cubensis, Table D, component (b) alone at 40 ppm, read-out: CDM Obsd
  pest or weed control at 40 ppm: 100%
[2]; Pseudoperonospora cubensis, component (b) alone 0.08 ppm (Compound 1 0 ppm), read-out: CDM Obsd
  pest or weed control at 0.08 µg/mL: 47%
[2]; [3]
  pest or weed control at 0.4 µg/mL: 47%
[2]; [4]
  pest or weed control at 2 µg/mL: 57%
[2]; [5]
  pest or weed control at 10 µg/mL: 100%
[2]; [6]
  pest or weed control at 40 µg/mL: 100%
[2]; Pseudoperonospora cubensis, component (b) alone, 0.08 ppm, read-out: CDM Obsd (observed effect, cucumber downy mildew)
  pest or weed control at 0.08 ppm: 0%
[2]; Pseudoperonospora cubensis, component (b) alone, 0.4 ppm, read-out: CDM Obsd (observed effect, cucumber downy mildew)
  pest or weed control at 0.4 ppm: 0%
[2]; Pseudoperonospora cubensis, component (b) alone, 2 ppm, read-out: CDM Obsd (observed effect, cucumber downy mildew)
  pest or weed control at 2 ppm: 68%
[2]; Pseudoperonospora cubensis, component (b) alone, 10 ppm, read-out: CDM Obsd (observed effect, cucumber downy mildew)
  pest or weed control at 10 ppm: 100%
[2]; Pseudoperonospora cubensis, component (b) alone, 40 ppm, read-out: CDM Obsd (observed effect, cucumber downy mildew)
  pest or weed control at 40 ppm: 100%
